Experimental data taken from US11732256B2, “Multivalent glycopeptides that tightly bind to target proteins” (Brandeis University, priority 2013, dated 2023).
*1 amine or outer side, *2 acyl side, *3 side chain or, on linkers, in order; H or OH if unused. [ ]: non-standard residue; d: D form. The star is where a group is joined. X1 = O=C([C@H](CCc1cn(C2CCC(OC3O[C@H](CO[C@H]4O[C@H](CO[C@H]5O[C@H](CO)[C@@H](O)[C@H](O)[C@@H]5O[C@H]5O[C@H](CO)[C@@H](O)[C@H](O)[C@@H]5O)[C@@H](O)[C@H](O[C@H]5O[C@H](CO)[C@@H](O)[C@H](O)[C@@H]5O[C@H]5O[C@H](CO)[C@@H](O)[C@H](O)[C@@H]5O)[C@@H]4O)[C@@H](O)[C@H](O[C@H]4O[C@H](CO)[C@@H](O)[C@H](O)[C@@H]4O[C@H]4O[C@H](CO)[C@@H](O)[C@H](O)[C@@H]4O[C@H]4O[C@H](CO)[C@@H](O)[C@H](O)[C@@H]4O)[C@@H]3O)CC2)nn1)N[*:1])[*:2]; For = O=C*

System: HIV broadly neutralizing antibody 2G12
Assay: Radioactive 2G12-glycopeptide binding assay with protein G magnetic beads (binding curve and KD determination)
Conditions: for Fmax [%]: Table 6 mutants/truncations, radioactive binding assay
Method: The sequences were obtained by cloning non-selected library DNA. […] FIG. 9B is an SDS-PAGE analysis of the click reaction of the non-selected peptides. Both peptides were transcribed and translated from PCR-amplified DNA in Pure System that contains 0.02 mg/mL T7 RNA polymerase and additional 1 mM each NTP. The peptides were labeled with 3H-histidine and the bands were visualized by fluorography.
For round 10 winners, 0.12-0.2 nM radioactive glycopeptides were incubated with 0, 0.25, 0.5, 1, 2, 4, 8, 16, 32 or 64 nM 2G12 in 40 μL of selection buffer at room temperature for 1 h. Then, the solution was added to 0.12 mg of pre-equilibrated Dynabeads Protein G and tumbled at room temperature for 30 min. The supernatant was removed and the beads were washed with 3×40 μL of selection buffer. The radioactivities of the supernatant and wash solutions were measured by liquid scintillation counting as unbound fractions. […] The beads were resuspended in 40 μL of selection buffer, heated at 70° C. for 30 min to elute the bound glycopeptides, chilled on ice for 5 min, and tumbled at room temperature for 10 min. The supernatant was removed, and the beads were washed with 40 μL of selection buffer and resuspended in 40 μL of selection buffer. The radioactivities of these solutions and suspensions were measured by liquid scintillation counting separately and the values were combined as apparent bound fractions. […] All experiments were done at least in triplicate. KDs were calculated as described in the footnote of Table 4 (below).

## CC[C@H](C)[C@H](NC(=O)[C@H](CCC(N)=O)NC(=O)[C@H](CCCCN)NC(=O)[C@H](CC(C)C)NC(=O)[C@H](Cc1c[nH]cn1)NC(=O)[C@H](CC(C)C)NC(=O)[C@@H](NC(=O)[C@H](CC(=O)O)NC(=O)[C@H](CCc1cn(C2CCC(OC3O[C@H](CO[C@H]4O[C@H](CO[C@H]5O[C@H](CO)[C@@H](O)[C@H](O)[C@@H]5O[C@H]5O[C@H](CO)[C@@H](O)[C@H](O)[C@@H]5O)[C@@H](O)[C@H](O[C@H]5O[C@H](CO)[C@@H](O)[C@H](O)[C@@H]5O[C@H]5O[C@H](CO)[C@@H](O)[C@H](O)[C@@H]5O)[C@@H]4O)[C@@H](O)[C@H](O[C@H]4O[C@H](CO)[C@@H](O)[C@H](O)[C@@H]4O[C@H]4O[C@H](CO)[C@@H](O)[C@H](O)[C@@H]4O[C@H]4O[C@H](CO)[C@@H](O)[C@H](O)[C@@H]4O)[C@@H]3O)CC2)nn1)NC=O)[C@@H](C)O)C(=O)NCC(=O)NCC(=O)N[C@@H](CCc1cn(C2CCC(OC3O[C@H](CO[C@H]4O[C@H](CO[C@H]5O[C@H](CO)[C@@H](O)[C@H](O)[C@@H]5O[C@H]5O[C@H](CO)[C@@H](O)[C@H](O)[C@@H]5O)[C@@H](O)[C@H](O[C@H]5O[C@H](CO)[C@@H](O)[C@H](O)[C@@H]5O[C@H]5O[C@H](CO)[C@@H](O)[C@H](O)[C@@H]5O)[C@@H]4O)[C@@H](O)[C@H](O[C@H]4O[C@H](CO)[C@@H](O)[C@H](O)[C@@H]4O[C@H]4O[C@H](CO)[C@@H](O)[C@H](O)[C@@H]4O[C@H]4O[C@H](CO)[C@@H](O)[C@H](O)[C@@H]4O)[C@@H]3O)CC2)nn1)C(=O)N1CCC[C@H]1C(=O)N[C@@H](CC(N)=O)C(=O)N[C@@H](CS)C(=O)N[C@H](C(=O)N[C@H](C(=O)N[C@@H](CCC(N)=O)C(=O)N[C@@H](CCC(N)=O)C(=O)N[C@@H](CC(=O)O)C(=O)N[C@H](C(=O)N[C@@H](CCCNC(=N)N)C(=O)N[C@@H](CCc1cn(C2CCC(OC3O[C@H](CO[C@H]4O[C@H](CO[C@H]5O[C@H](CO)[C@@H](O)[C@H](O)[C@@H]5O[C@H]5O[C@H](CO)[C@@H](O)[C@H](O)[C@@H]5O)[C@@H](O)[C@H](O[C@H]5O[C@H](CO)[C@@H](O)[C@H](O)[C@@H]5O[C@H]5O[C@H](CO)[C@@H](O)[C@H](O)[C@@H]5O)[C@@H]4O)[C@@H](O)[C@H](O[C@H]4O[C@H](CO)[C@@H](O)[C@H](O)[C@@H]4O[C@H]4O[C@H](CO)[C@@H](O)[C@H](O)[C@@H]4O[C@H]4O[C@H](CO)[C@@H](O)[C@H](O)[C@@H]4O)[C@@H]3O)CC2)nn1)C(=O)N[C@H](C(=O)N[C@@H](CO)C(=O)N[C@H](C(=O)N1CCC[C@H]1C(=O)N[C@@H](Cc1ccc(O)cc1)C(=O)N[C@H](C(=O)N[C@@H](Cc1ccc(O)cc1)C(=O)N[C@H](C(=O)N[C@@H](Cc1c[nH]c2ccccc12)C(=O)N1CCC[C@H]1C(=O)NCC(=O)N[C@@H](CO)C(=O)NCC(=O)N[C@@H](CO)C(=O)N[C@@H](CC(C)C)C(=O)NCC(=O)N[C@@H](Cc1c[nH]cn1)C(=O)N[C@@H](Cc1c[nH]cn1)C(=O)N[C@@H](Cc1c[nH]cn1)C(=O)N[C@@H](Cc1c[nH]cn1)C(=O)N[C@@H](Cc1c[nH]cn1)C(=O)N[C@@H](Cc1c[nH]cn1)C(=O)N[C@@H](CCCNC(=N)N)C(=O)N[C@@H](CC(=O)O)C(=O)N[C@@H](Cc1ccc(O)cc1)C(=O)N[C@@H](CCCCN)C(=O)N[C@@H](CC(=O)O)C(=O)N[C@@H](CC(=O)O)C(=O)N[C@@H](CC(=O)O)C(=O)N[C@@H](CC(=O)O)C(=O)N[C@@H](CCCCN)C(=O)O)[C@@H](C)O)[C@@H](C)O)[C@@H](C)CC)[C@@H](C)O)C(C)C)[C@@H](C)O)[C@@H](C)CC (stereo partly shown) [Clone 10F3, XDTLHLKQIGGXPNCITQQDVRXTSIPYTYTWP]
Cys mutated to Ser
  Tolerance of Cys substitutions for 2G12 binding: tolerated

## For-[X1]PNCITQQDVR[X1]TSIPYTYTWPGSGSLGHHHHHHRDYKDDDDK-OH [Clone 10F3-Δ11, XPNCITQQDVRXTSIPYTYTWP]
  Fmax [%]: 32%

## CC[C@H](C)[C@H](NC(=O)[C@H](CCCNC(=N)N)NC(=O)[C@H](Cc1c[nH]cn1)NC(=O)[C@H](Cc1ccccc1)NC(=O)[C@H](CC(C)C)NC(=O)[C@H](C)NC(=O)[C@H](CC(C)C)NC(=O)[C@H](C)NC(=O)[C@H](Cc1ccc(O)cc1)NC(=O)[C@H](CCc1cn(C2CCC(OC3O[C@H](CO[C@H]4O[C@H](CO[C@H]5O[C@H](CO)[C@@H](O)[C@H](O)[C@@H]5O[C@H]5O[C@H](CO)[C@@H](O)[C@H](O)[C@@H]5O)[C@@H](O)[C@H](O[C@H]5O[C@H](CO)[C@@H](O)[C@H](O)[C@@H]5O[C@H]5O[C@H](CO)[C@@H](O)[C@H](O)[C@@H]5O)[C@@H]4O)[C@@H](O)[C@H](O[C@H]4O[C@H](CO)[C@@H](O)[C@H](O)[C@@H]4O[C@H]4O[C@H](CO)[C@@H](O)[C@H](O)[C@@H]4O[C@H]4O[C@H](CO)[C@@H](O)[C@H](O)[C@@H]4O)[C@@H]3O)CC2)nn1)NC(=O)[C@H](CC(=O)O)NC(=O)[C@@H](NC(=O)[C@@H](NC(=O)[C@H](CCC(N)=O)NC(=O)[C@H](CCc1cn(C2CCC(OC3O[C@H](CO[C@H]4O[C@H](CO[C@H]5O[C@H](CO)[C@@H](O)[C@H](O)[C@@H]5O[C@H]5O[C@H](CO)[C@@H](O)[C@H](O)[C@@H]5O)[C@@H](O)[C@H](O[C@H]5O[C@H](CO)[C@@H](O)[C@H](O)[C@@H]5O[C@H]5O[C@H](CO)[C@@H](O)[C@H](O)[C@@H]5O)[C@@H]4O)[C@@H](O)[C@H](O[C@H]4O[C@H](CO)[C@@H](O)[C@H](O)[C@@H]4O[C@H]4O[C@H](CO)[C@@H](O)[C@H](O)[C@@H]4O[C@H]4O[C@H](CO)[C@@H](O)[C@H](O)[C@@H]4O)[C@@H]3O)CC2)nn1)NC(=O)[C@H](CCCCN)NC(=O)[C@H](CC(C)C)NC(=O)[C@H](C)NC(=O)[C@H](C)NC(=O)[C@H](CCc1cn(C2CCC(OC3O[C@H](CO[C@H]4O[C@H](CO[C@H]5O[C@H](CO)[C@@H](O)[C@H](O)[C@@H]5O[C@H]5O[C@H](CO)[C@@H](O)[C@H](O)[C@@H]5O)[C@@H](O)[C@H](O[C@H]5O[C@H](CO)[C@@H](O)[C@H](O)[C@@H]5O[C@H]5O[C@H](CO)[C@@H](O)[C@H](O)[C@@H]5O)[C@@H]4O)[C@@H](O)[C@H](O[C@H]4O[C@H](CO)[C@@H](O)[C@H](O)[C@@H]4O[C@H]4O[C@H](CO)[C@@H](O)[C@H](O)[C@@H]4O[C@H]4O[C@H](CO)[C@@H](O)[C@H](O)[C@@H]4O)[C@@H]3O)CC2)nn1)NC(=O)[C@H](CCc1cn(C2CCC(OC3O[C@H](CO[C@H]4O[C@H](CO[C@H]5O[C@H](CO)[C@@H](O)[C@H](O)[C@@H]5O[C@H]5O[C@H](CO)[C@@H](O)[C@H](O)[C@@H]5O)[C@@H](O)[C@H](O[C@H]5O[C@H](CO)[C@@H](O)[C@H](O)[C@@H]5O[C@H]5O[C@H](CO)[C@@H](O)[C@H](O)[C@@H]5O)[C@@H]4O)[C@@H](O)[C@H](O[C@H]4O[C@H](CO)[C@@H](O)[C@H](O)[C@@H]4O[C@H]4O[C@H](CO)[C@@H](O)[C@H](O)[C@@H]4O[C@H]4O[C@H](CO)[C@@H](O)[C@H](O)[C@@H]4O)[C@@H]3O)CC2)nn1)NC=O)C(C)C)[C@@H](C)O)C(=O)N[C@@H](CC(C)C)C(=O)NCC(=O)N[C@@H](CO)C(=O)NCC(=O)N[C@@H](CO)C(=O)N[C@@H](CC(C)C)C(=O)NCC(=O)N[C@@H](Cc1c[nH]cn1)C(=O)N[C@@H](Cc1c[nH]cn1)C(=O)N[C@@H](Cc1c[nH]cn1)C(=O)N[C@@H](Cc1c[nH]cn1)C(=O)N[C@@H](Cc1c[nH]cn1)C(=O)N[C@@H](Cc1c[nH]cn1)C(=O)N[C@@H](CCCNC(=N)N)C(=O)N[C@@H](CC(=O)O)C(=O)N[C@@H](Cc1ccc(O)cc1)C(=O)N[C@@H](CCCCN)C(=O)N[C@@H](CC(=O)O)C(=O)N[C@@H](CC(=O)O)C(=O)N[C@@H](CC(=O)O)C(=O)N[C@@H](CC(=O)O)C(=O)N[C@@H](CCCCN)C(=O)O (stereo partly shown) [Clone 10F2-Δ11, XXAALKXQVTDXYALALFHRIL]
  Fmax [%]: 70%
Truncated clones
  2G12 binding after truncation: tight binding
